Test results published in US20160184274A1, “Methods for inhibiting mesenchymal phenotype after epithelial-to-mesenchymal transition” (Fibrostatin, S.L., priority 2014, published 2016).
“Also recorded” adds a separate entry of the source.

What was measured:
[1] = system: mesenchymal A549 spheroids; assay: Collagen network in mesenchymal spheroids, confocal microscopy; type: cell-based, Human
Description: FIG. 7. T12 disrupts collagen IV network and reduces A549 mesenchymal spheroids viability. A549 spheroids were subjected to EMT induction with TGF-β and TNF-α during 4 days, and treated with T12 (10 μM) or maintained untreated (Cont) for the last 2 days. In A, spheroids were analyzed by immunofluorescence confocal microscopy with anti-α1α2 (IV) antibodies (COL4, white) and DAPI to visualize the cell nuclei (grey). In B, the culture media of the spheroids in A were used for assessing cell death by measuring LDH activity. […] Represented are Means (±SEM).
Three-dimensional spheroid cultures of A549 cells were obtained using a hanging droplet method (Kelm et al., 2003. Biotechnol. Bioeng. 83: 173-180.; Kumar et al., 2013. PLoS One. 8: e68597). Briefly, cells were grown to approximately 80% confluence on adherent tissue-culture flasks. Then cells were trypsinized, dispersed in DMEM/10% FBS, and counted using an automated cell counter (MOXI® Z, Orflo). The cell suspension was diluted to a 10^6 cells/mL-concentration, and 25 μl of the cell suspension were pipetted onto the underside of a sterile 10-cm tissue culture plate lid. Each lid was loaded with approximately 55 droplets. After loading, the lid was placed onto a tissue culture plate containing 6 mL of sterile PBS (phosphate-buffered saline) and incubated for 48 hours to facilitate spheroid formation. […]

A7C11 = assay: Collagen IV expression in A7C11; type: cell-based, murine; details: data not shown
[2] = system: 4T1 mouse breast cancer cells; assay: Murine breast cancer 4T1 model; type: in vivo, Balb/c mice
Description: FIG. 10. […] Control, n=43; T12, n=18. FIG. 11. T12 targets circulating 4T1 cancer cells. A, Balb/c female mice were inoculated with 4T1 mouse breast cancer cells at mammary fat pads. At day 20 after cell inoculation mice were subjected to PET analysis for metastases detection. White arrows denote metastatic foci at the spinal cord. B, Balb/c female from A were either left untreated (Control), or were treated with T12 in drinking water from day 20. At day 35 blood was seeded in the presence of 6-thioguanine and circulating 4T1 cells selected and further cultured. Shown are phase contrast images of the resulting cultures acquired with an inverted microscope. […] C, circulating 4T1 cells recovered as in B and 4T1 cells were cultured in standard 2D cultures and subjected to RNA extraction, and RNA samples were analyzed by RT-qPCR. Shown are the relative quantities (RQ) of the indicated mRNAs of circulating 4T1 cells using levels from 4T1 cells as reference. D, the cultures in C were treated with the indicated concentrations of T12 for 24 h. Dead cells in culture media were quantified by measuring cell size using an automated cell counter (Moxi Z, Orflo). The number of dead cells in the culture media of the respective untreated cells (−) was used as reference. E, circulating 4T1 cells recovered as in B or 4T1 cells were cultured in ultra-low binding plates and treated with the indicated concentrations of T12 for 9 days, cells were lysed and analyzed by Western blot using antibodies specific for activated caspase 3. The levels of GAPDH were determined for loading control purposes. For other assays, 10^4 4 T1 cells were suspended in 10 μl PBS and subcutaneously injected into the 4th mammary fat pad of 4-week-old Balb/c female mice, and either left untreated or treated since the inoculation day with T12 (12 mg/kg/day in drinking water). Primary tumors formed and dimensions were periodically measured with a caliper.

stem A549 cells = details: WO/2014/006020; cited from earlier work

**Q.** Which results are given for `COc1ccc(-c2ccc(-c3cccc(C)c3)c(C)c2)c(CCC(=O)O)c1` [T12, 3-[4″-methoxy-3,2′-dimethyl-(1,1′;4′,1″)terphenyl-2″-yl] propionic acid]?
**A.** collagen IV network formation ([1]; T12 10 μM for the last 2 days of 4-day EMT induction with TGF-β and TNF-α, FIG. 7A): inhibited collagen IV network formation; fibrillary collagen I ([1]; data not shown): sharply reduced fibrillary collagen I; collagen IV expression (A7C11): significantly reduced collagen IV expression; tumor volume (anti-tumor activity) ([2]; T12 12 mg/kg/day in drinking water from inoculation, FIG. 10B, 12 mg/kg/day): displayed anti-tumor activity; also recorded: differences are statistically significant; superficial metastasis per lung ([2]; T12 12 mg/kg/day in drinking water, day 25, FIG. 10C, 12 mg/kg/day): inhibited metastasis formation; also recorded: Differences are statistically significant; recovery of circulating 4T1 tumor cells from blood ([2]; T12 in drinking water from day 20, blood seeded at day 35 with 6-thioguanine, FIG. 11B): impeded the isolation of circulating 4T1 tumor cells; also recorded: could not be recovered; doxorubicin accumulation and viability (stem A549 cells): accumulated doxorubicin reducing viability
